Reference: patent EP4782448A1, “SUBSTITUTED PYRIDOTRIAZOLE COMPOUND, AND PREPARATION METHOD THEREFOR AND USE THEREOF” (Origiant Pharmaceutical Co., Ltd., priority 2023, dated 2025)

What follows are compounds tested on HT-29 cells (assay: In vitro assay for protection of HT-29 cells from necroptosis (TNFα/Smac mimetic/Z-VAD-FMK induction, CCK8 readout)). Details: TNFα/Smac mimetic/Z-VAD-FMK for 24 h; inhibition of necroptosis; read-out: HT-29 (EC50).
Type: cell-based

| SMILES | EC50 [nM] |
| --- | --- |
| Cn1cc(C(=O)N[C@H]2CCCc3cc(F)ccc32)c2cc(-c3ccn4nc(NC(=O)[C@@H]5CCCO5)nc4c3)ccc21 [Compound 139] | 1 to 10 |
| CC(C)NCC(=O)Nc1nc2cc(-c3ccc4c(c3)c(C(=O)N[C@@H](C)c3ccc(F)cc3)cn4C)ccn2n1 [Compound 67] | < 1 |
| C[C@H](NC(=O)c1cn(C)c2ccc(-c3ccn4nc(NC(=O)CN5CCOCC5)nc4c3)cc12)c1ccco1 [Compound 88] | 1 to 10 |
| C[C@H](NC(=O)c1cn(C)c2ccc(-c3ccn4nc(NC(=O)CN5CCOC[C@@H]5CO)nc4c3)cc12)c1ccc(F)cc1 [Compound 35] | < 1 |
| Cn1cc(C(=O)N[C@H]2CCCc3cc(F)ccc32)c2cc(-c3ccn4nc(NC(=O)[C@H]5CCCO5)nc4c3)ccc21 [Compound 137] | 10 to 100 |
| C[C@H](NC(=O)c1cn(C)c2ccc(-c3ccn4nc(NC(=O)CN5CCC(F)(F)CC5)nc4c3)cc12)c1ccc(Cl)cc1 [Compound 86] | < 1 |
| Cn1cc(C(=O)N[C@@H](CF)c2ccc(F)cc2)c2cc(-c3ccn4nc(NC(=O)CN5CCCCC5)nc4c3)ccc21 [Compound 96] | < 1 |
| COCCn1cc(C(=O)N[C@@H](CF)c2ccc(F)cc2)c2cc(-c3ccn4nc(NC(=O)CC#N)nc4c3)ccc21 [Compound 215] | 10 to 100 |
| Cn1cc(C(=O)Nc2nc3cc(-c4ccc5c(c4)c(C(=O)N4CCOC[C@@H]4c4ccc(F)cc4)cn5C)ccn3n2)cn1 [Compound 149] | < 1 |
| C[C@H](NC(=O)c1cn(C)c2ccc(-c3ccn4nc(NC(=O)Cn5ccnn5)nc4c3)cc12)c1ccc(F)cc1 [Compound 52] | < 1 |
| COC(C)C(=O)Nc1nc2cc(-c3ccc4c(c3)c(-c3nncn3C(C)c3ccc(F)cc3)cn4C)ccn2n1 (stereo not shown) [Compound 216] | 10 to 100 |
| C[C@H](NC(=O)c1cn(C)c2ccc(-c3ccn4nc(NC(=O)CN5CC(F)(F)C5)nc4c3)cc12)c1ccc(Cl)cc1 [Compound 80] | < 1 |
| CO[C@@H](C)C(=O)Nc1nc2cc(-c3ccc4c(c3)c(C(=O)N[C@H](c3ccc(F)cc3)C(F)F)cn4C)ccn2n1 [Compound 165] | < 1 |
| CCn1cc(C(=O)N[C@@H](CF)c2ccc(F)cc2)c2cc(-c3ccn4nc(NC(=O)N5CCOCC5)nc4c3)ccc21 [Compound 200] | < 1 |
| CN1CCN(C(=O)Nc2nc3cc(-c4ccc5c(c4)c(C(=O)N[C@@H](CF)c4ccc(F)cc4)cn5C)ccn3n2)CC1 [Compound 95] | < 1 |
| CN(C)CC(=O)Nc1nc2cc(-c3ccc4c(c3)c(C(=O)N[C@H]3CCc5ccc(F)cc53)cn4C)ccn2n1 [Compound 123] | 1 to 10 |
| Cn1cc(C(=O)N[C@@H](CF)c2ccc(F)cc2)c2cc(-c3ccn4nc(NC(=O)C5CCOC5)nc4c3)ccc21 (stereo partly shown) [Compound 109] | 1 to 10 |
| C[C@H](NC(=O)c1cn(C)c2ccc(-c3ccn4nc(NC(=O)CNCCOCCO)nc4c3)cc12)c1ccc(F)cc1 [Compound 65] | < 1 |
| Cn1cc(C(=O)Nc2nc3cc(-c4ccc5c(c4)c(C4=NC(c6ccc(F)cc6)CO4)cn5C)ccn3n2)cn1 (stereo not shown) [Compound 213] | 10 to 100 |
| C[C@H](NC(=O)c1cn(C)c2ccc(-c3ccn4nc(NC(=O)N5CCOCC5)nc4c3)cc12)c1cccc(F)c1 [Compound 118] | < 1 |
| CN(C)CC(=O)Nc1nc2cc(-c3ccc4c(c3)c(C(=O)N[C@H](c3ccc(F)cc3)C(F)F)cn4C)ccn2n1 [Compound 167] | < 1 |
| C[C@H](NC(=O)c1cn(C)c2ccc(-c3ccn4nc(NC(=O)CN5CCOC[C@@H]5C)nc4c3)cc12)c1ccc(Cl)cc1 [Compound 82] | < 1 |
| Cn1cc(C(=O)Nc2nc3cc(-c4ccc5c(c4)c(C(=O)N[C@H]4CCCc6ccc(F)cc64)cn5C)ccn3n2)cn1 [Compound 143] | 1 to 10 |

| SMILES | EC50 [nM] |
| --- | --- |
| COCCOCCOCCOCC(=O)Nc1nc2cc(-c3ccc4c(c3)c(C(=O)N[C@@H](C)c3ccc(F)cc3)cn4C)ccn2n1 [Compound 26] | < 1 |
| C[C@H](NC(=O)c1cn(C)c2ccc(-c3ccn4nc(N5CCOCC5=O)nc4c3)cc12)c1ccc(F)cc1 [Compound 218] | 10 to 100 |
| Cn1cc(C(=O)N2CCC[C@H]2c2ccc(F)cc2)c2cc(-c3ccn4nc(NC(=O)N5CCOCC5)nc4c3)ccc21 [Compound 153] | < 1 |
| CC(c1ccc(F)cc1)n1cnnc1-c1cn(C)c2ccc(-c3ccn4nc(NC(=O)C5CCOC5)nc4c3)cc12 (stereo not shown) [Compound 217] | 10 to 100 |
| CC(c1ccc(F)cc1)n1cnc(-c2cn(C)c3ccc(-c4ccn5nc(NC(=O)C6CC6F)nc5c4)cc23)n1 (stereo not shown) [Compound 209] | 100 to 1000 |
| Cn1cc(C(=O)N2CCOC[C@@H]2c2ccc(F)cc2)c2cc(-c3ccn4nc(NC(=O)C5CC5)nc4c3)ccc21 [Compound 151] | < 1 |
| Cn1cc(C(=O)N[C@@H](CF)c2ccc(F)cc2)c2cc(-c3ccn4nc(NC(=O)C5(C)CCC5)nc4c3)ccc21 [Compound 105] | 10 to 100 |
| Cn1cc(C(=O)N2N=CCC2c2ccc(F)cc2)c2cc(-c3ccn4nc(NC(=O)N5CCOCC5)nc4c3)ccc21 (stereo not shown) [Compound 172] | 1 to 10 |
| Cn1cc(C(=O)N2CC(F)(F)CC2c2ccc(F)cc2)c2cc(-c3ccn4nc(NC(=O)N5CCOCC5)nc4c3)ccc21 (stereo not shown) [Compound 160] | < 1 |
| C[C@H](NC(=O)c1cn(C)c2ccc(-c3ccn4nc(NC(=O)CN(C)C)nc4c3)cc12)c1ccc(Cl)cc1 [Compound 78] | < 1 |
| Cn1cc(C(=O)N[C@@H](CF)c2ccc(F)cc2)c2cc(-c3ccn4nc(NC(=O)CCl)nc4c3)ccc21 [Compound 94] | < 1 |
| CC1CN(CC(=O)Nc2nc3cc(-c4ccc5c(c4)c(C(=O)N[C@@H](C)c4ccc(Cl)cc4)cn5C)ccn3n2)CCO1 (stereo partly shown) [Compound 84] | < 1 |
| CCNCC(=O)Nc1nc2cc(-c3ccc4c(c3)c(C(=O)N[C@@H](C)c3ccc(F)cc3)cn4C)ccn2n1 [Compound 76] | < 1 |
| C[C@H](NC(=O)c1cn(C)c2ccc(-c3ccn4nc(NC(=O)Cn5ccnc5)nc4c3)cc12)c1ccc(F)cc1 [Compound 48] | 10 to 100 |
| Cn1nc(C(=O)N[C@@H](CF)c2ccc(F)cc2)c2cc(-c3ccn4nc(NC(=O)C5CCOC5)nc4c3)ccc21 (stereo partly shown) [Compound 188] | < 1 |
| C[C@H](NC(=O)c1cn(C)c2ccc(-c3ccn4nc(NC(=O)CN5CC[C@H](CO)C5)nc4c3)cc12)c1ccc(F)cc1 [Compound 61] | 1 to 10 |
| Cn1cc(C(=O)N2N=CCC2c2ccc(F)cc2)c2cc(-c3ccn4nc(NC(=O)C5CCOC5)nc4c3)ccc21 (stereo not shown) [Compound 169] | < 1 |
| Cn1cc(C(=O)Nc2nc3cc(-c4ccc5c(c4)c(C(=O)N[C@@H](CF)c4ccc(F)cc4)nn5C)ccn3n2)cn1 [Compound 187] | < 1 |
| C[C@H](NC(=O)c1cn(C)c2ccc(-c3ccn4nc(NC(=O)c5ccnc(F)c5)nc4c3)cc12)c1ccc(F)cc1 [Compound 115] | < 1 |
| Cn1cc(C(=O)N[C@@H](CF)c2ccc(F)cc2)c2cc(-c3ccn4nc(NC(=O)C#N)nc4c3)ccc21 [Compound 102] | < 1 |
| C[C@H](NC(=O)c1cn(C)c2ccc(-c3ccn4nc(NC(=O)CN5CCC[C@H]5C(=O)O)nc4c3)cc12)c1ccc(F)cc1 [Compound 37] | 1 to 10 |
| Cn1cc(C(=O)N[C@@H]2C[C@H]2c2ccc(F)c(F)c2)c2cc(-c3ccn4nc(NC(=O)[C@H]5CCCO5)nc4c3)ccc21 [Compound 184] | 100 to 1000 |
| Cn1cc(C(=O)NC2(c3ccc(F)cc3)COC2)c2cc(-c3ccn4nc(NC(=O)C5CC5)nc4c3)ccc21 [Compound 148] | 10 to 100 |
